Test results as given in PubChem BioAssay AID2117 (The Scripps Research Institute Molecular Screening Center, 2009).

Tests used:
Test in all cases: LXR, FXR and VP16 reporter activity, cell-based, luciferase reporter, ROR modulator project, late-stage follow-up (AID 2117)
[1] = target: Bile acid receptor (Homo sapiens) (UniProt Q96RI1); conditions: cell-based luciferase reporter panel, FXR, activation potency
[2] = target: Oxysterols receptor LXR-beta (Homo sapiens) (UniProt P55055); conditions: cell-based luciferase reporter panel, activation potency
[3] = target: Glucose-6-phosphatase catalytic subunit 1 (Homo sapiens) (UniProt P35575); conditions: cell-based luciferase reporter panel, G6Pase Promoter
Sequence of Glucose-6-phosphatase catalytic subunit 1 (Homo sapiens) (P35575 whole entry, looked up): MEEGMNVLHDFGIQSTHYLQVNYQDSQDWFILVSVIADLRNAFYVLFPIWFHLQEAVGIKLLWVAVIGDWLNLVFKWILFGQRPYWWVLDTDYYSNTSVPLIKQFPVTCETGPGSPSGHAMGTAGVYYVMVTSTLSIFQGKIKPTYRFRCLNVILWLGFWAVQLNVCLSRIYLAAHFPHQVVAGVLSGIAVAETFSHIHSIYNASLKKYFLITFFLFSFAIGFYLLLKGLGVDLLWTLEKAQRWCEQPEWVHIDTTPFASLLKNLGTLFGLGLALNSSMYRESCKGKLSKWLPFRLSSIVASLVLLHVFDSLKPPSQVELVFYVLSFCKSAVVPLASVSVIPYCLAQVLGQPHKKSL

Sequence of Bile acid receptor (Homo sapiens) (Q96RI1 whole entry, looked up): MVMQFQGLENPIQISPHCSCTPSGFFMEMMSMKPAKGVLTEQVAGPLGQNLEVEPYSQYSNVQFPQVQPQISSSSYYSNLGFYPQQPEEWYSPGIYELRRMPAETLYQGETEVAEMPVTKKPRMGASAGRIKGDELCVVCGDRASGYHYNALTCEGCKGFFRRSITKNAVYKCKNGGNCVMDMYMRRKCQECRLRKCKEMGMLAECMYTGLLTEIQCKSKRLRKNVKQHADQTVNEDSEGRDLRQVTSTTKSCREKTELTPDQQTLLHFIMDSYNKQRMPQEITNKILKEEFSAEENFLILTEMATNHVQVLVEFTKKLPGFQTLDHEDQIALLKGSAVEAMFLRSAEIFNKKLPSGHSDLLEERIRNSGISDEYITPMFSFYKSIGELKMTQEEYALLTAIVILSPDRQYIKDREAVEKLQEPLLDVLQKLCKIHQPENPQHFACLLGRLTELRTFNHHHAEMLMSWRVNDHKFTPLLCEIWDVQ
Sequence of Oxysterols receptor LXR-beta (Homo sapiens) (P55055 whole entry, looked up): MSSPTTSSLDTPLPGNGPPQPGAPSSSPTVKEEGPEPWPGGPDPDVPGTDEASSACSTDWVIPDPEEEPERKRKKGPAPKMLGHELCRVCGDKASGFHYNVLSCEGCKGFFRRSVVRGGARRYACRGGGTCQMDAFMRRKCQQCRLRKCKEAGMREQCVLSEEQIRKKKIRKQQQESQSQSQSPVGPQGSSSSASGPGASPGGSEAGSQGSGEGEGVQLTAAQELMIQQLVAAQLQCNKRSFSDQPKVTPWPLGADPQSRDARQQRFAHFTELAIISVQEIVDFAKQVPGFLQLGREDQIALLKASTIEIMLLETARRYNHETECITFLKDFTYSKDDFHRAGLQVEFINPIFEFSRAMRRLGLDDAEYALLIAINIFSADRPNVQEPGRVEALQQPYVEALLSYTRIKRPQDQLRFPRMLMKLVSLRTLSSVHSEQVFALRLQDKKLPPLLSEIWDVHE

| Compound | EC50 [1] | EC50 [2] | IC50 [3] |
| --- | --- | --- | --- |
| O=S(=O)(Nc1ccc(C(O)(C(F)(F)F)C(F)(F)F)cc1)c1cccc2cccnc12 | > 20 µM | > 6 µM | – |
| CC(C)(C)c1ccc(S(=O)(=O)Nc2ccc(C(O)(C(F)(F)F)C(F)(F)F)cc2)cc1 | > 20 µM | > 20 µM | 8.4 µM |
| O=S(=O)(Nc1ccc(C(O)(C(F)(F)F)C(F)(F)F)cc1)c1cccc2ccccc12 | 12 µM | 5.7 µM | – |
| COc1cccc(S(=O)(=O)Nc2ccc(C(O)(C(F)(F)F)C(F)(F)F)cc2)c1 | > 20 µM | 18 µM | – |
| O=S(=O)(Nc1ccc(C(O)(C(F)(F)F)C(F)(F)F)cc1)c1ccc(Cl)c2nonc12 | > 20 µM | 12 µM | – |
